In the NIST ThermoML archive (doi:10.1021/je400243j) one finds viscosity and mass density data, which are given here for four compounds.

Numbers after ± are expanded uncertainties.

The conditions of the series: 293.15 K, 101.33 kPa, Liquid; for viscosity: Concentric cylinders viscometry; for mass density: Vibrating tube method.

As usually defined, the viscosity is the resistance of a fluid to flow. As usually defined, the mass density is the mass of a sample divided by its volume. Turning to `C[n+]1ccn(CCCS(=O)(=O)O)c1.O=S(=O)([O-])O` [1-methyl-3-(3-sulfopropyl)-imidazolium hydrogensulfate], the viscosity was 1296 ± 150 mPa·s and the mass density is 1501.7 ± 0.9 kg/m3.
The like results for `CCCCn1cc[n+](CCCS(=O)(=O)O)c1.O=S(=O)([O-])O` [1-butyl-3-(3-sulfopropyl)-imidazolium hydrogensulfate] were, in that order, 1000 ± 100 mPa·s and 1346.9 ± 0.8 kg/m3.
The like results for `C[n+]1ccn(CCCCS(=O)(=O)O)c1.O=S(=O)([O-])O` [1-methyl-3-(4-sulfobutyl)-imidazolium hydrogensulfate] were, in that order, 1427 ± 180 mPa·s and 1464.7 ± 0.8 kg/m3.
In the same order, the values of `CCCCn1cc[n+](CCCCS(=O)(=O)O)c1.O=S(=O)([O-])O` [1-butyl-3-(4-sulfobutyl)-imidazolium hydrogensulfate] are 1592 ± 210 mPa·s and 1361.1 ± 0.8 kg/m3.
